We go through 41 compounds from patent publication US20240058240A1, “COMPOUNDS AS SELF-TANNING SUBSTANCES AND TANNING COMPOSITIONS THEREOF” (CHEMCOM S.A., priority 2020, published 2024).

One assay deals with T1, OR7C1 (Homo sapiens, UniProt O76099).
T1 construct: transfected with a plasmid containing the CRE-luciferase and a plasmid containing the olfactory receptor; expressed in transfected cells; host or cells: HEK293T-RTP1A1/RTP2 (HEK293T stably expressing the chaperones RTP1A1 and RTP2)
T1 sequence (O76099 1-320): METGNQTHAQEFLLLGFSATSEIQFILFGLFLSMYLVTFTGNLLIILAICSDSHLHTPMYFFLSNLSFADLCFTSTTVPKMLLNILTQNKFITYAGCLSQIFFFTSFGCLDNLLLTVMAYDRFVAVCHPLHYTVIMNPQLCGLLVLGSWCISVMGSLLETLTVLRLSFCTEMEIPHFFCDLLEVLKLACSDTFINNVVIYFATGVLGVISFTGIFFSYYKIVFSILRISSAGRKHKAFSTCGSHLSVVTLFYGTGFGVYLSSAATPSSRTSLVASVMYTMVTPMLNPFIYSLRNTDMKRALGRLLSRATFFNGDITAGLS
As to the kind of experiment: Luciferase-based CRE gene reporter assay, dose-response on OR7C1. The assay is classed as cell-based. The note with it: negative logarithm of the EC50 in Moles; semi-logarithmic dilutions from 1 mM to 316 nM on OR7C1. On the procedure: HEK293T-RTP1A1/RTP2 cells were maintained in minimal essential medium (EMEM, Lonza) containing 10% fetal bovine serum (M10). These cells were generated by transfecting HEK293T (Thermofisher Scientific, cat ref: R70007) with an expression vector containing the sequences of the chaperone proteins RTP1A1 and RTP2 and a resistance gene to puromycin, using Lipofectamine 2000. The recombinant cell population, used in these experiments, was selected by adding 10 μg/ml of puromycin into the culture medium and subsequently subcloned (WO 2014/191047 A1).
Potential OR7C1 agonists were diluted at a concentration of 1 mole/liter (M) into an organic solvent such as Dimethyl Sulfoxide (DMSO) or Ethanol to generate stock solutions. […]
For concentration-response analysis, serial dilutions of the tested molecules were prepared from stock solutions in EMEM plated into 96-well plates.
For the dose-response analysis, a Luciferase-based gene reporter assay (Promega, Leiden, the Netherlands) was used. Briefly, cells were platted on poly-D-lysine-coated 96-well plates and transfected with a plasmid containing the CRE-luciferase and a plasmid containing the olfactory receptor. Sixteen hours after transfection, the culture medium was replaced by serum-free EMEM containing the tested compounds at a determined concentration. After four hours of incubation at 37° C., cells were lysed and processed for luminescence measurement. Luminescence emission was recorded. Results were expressed as luciferase activity ([…] (RLU)) or as percentage of the response induced by 10 μM of the adenylate cyclase activator Forskolin. An empty plasmid is used as negative control.
Dose-response analyses using the luciferase-based reporter assay were performed using semi-logarithmic serial dilutions of the compounds, from 1 mM to 316 nM, on OR7C1. 46 compounds were tested in concentration-response analyses. In each experiment, an empty vector (pEFIBRHO) was used as negative control. Values are given as the negative logarithm of the EC50 in Moles.
(In general: Reporter assays use an easily measured gene product as a stand-in for the process of interest.)
Take “2-(2,2,7,7-Tetramethyl-5-tricyclo[6.2.1.01,6]undec-4-enyl)butan-1-ol [Compound 28]”: the “-LogEC50 (average n > 3)” value amounted to 6.6.

Consider “5-(1-Methoxybutan-2-yl)-2,2,7,7-tetramethyltricyclo[6.2.1.01,6]undec-5-ene [Compound 29]”, for which the “-LogEC50 (average n > 3)” value is on record as 5.2.

Consider Hydroxyambran [Compound 41], for which the “-LogEC50 (average n > 3)” value turned out to be 5.5.

Staying with this assay, now noted: negative logarithm of the EC50 in Moles; semi-logarithmic dilutions from 1 mM to 316 nM on OR7C1; read-out: -LogEC50 (average n > 3) (converted).
For `CCCC(O)COC1C(C)CCCC1(C)C` (mixture of isomers) [Compound 14, 1-((2,2,6-trimethylcyclohexyl)oxy)pentan-2-ol], the EC50 was 126 µM.

Regarding `CCC(O)COC1C(C)CCCC1(C)C` (mixture of isomers) [Compound 15, 1-((2,2,6-trimethylcyclohexyl)oxy)butan-2-ol], the EC50 was 126 µM.

On to `CC1(C)/C(=C\CO)C2CCC1C2` (racemic) [Compound 8, DL-Patchenol], for which the EC50 is 31.6 µM.

On to `CCC1OC2CC(C)(C)[C@@]34CC[C@@H](C3)C(C)(C)C4C2O1` (stereo in doubt) [Compound 20, 6-Ethyl-2,2,10,10-tetramethyl-5,7-dioxatetracyclo[9.2.1.01,9.04,8]tetradecane], for which the EC50 is 12.6 µM.

For `CC1OC2CC(C)(C)[C@@]34CC[C@@H](C3)C(C)(C)C4C2O1` (stereo in doubt) [Compound 23, 2,2,6,10,10-Pentamethyl-5,7-dioxatetracyclo[9.2.1.01,9.04,8]tetradecane], the EC50 is 5.01 µM.

Turning to `CC1(C)C2C3OCOC3CC(C)(C)[C@]23CC[C@H]1C3` (stereo in doubt) [Compound 24, 2,2,10,10-Tetramethyl-5,7-dioxatetracyclo[9.2.1.01,9.04,8]tetradecane], the EC50 was 10 µM.

With `COC[C@@H](C)C1=C2C(C)(C)[C@H]3CC[C@@]2(C3)C(C)(C)CC1` (stereo in doubt) [Compound 26, 5-(1-Methoxypropan-2-yl)-2,2,7,7-tetramethyltricyclo[6.2.1.01,6]undec-5-ene], the EC50 is 2.51 µM.

For `CC1(C)CCC[C@]2(C)C[C@]3(CCC12)CO3` (stereo in doubt) [Compound 38, 4,4,8a-Trimethylspiro[2,3,4a,5,6,8-hexahydro-1H-naphthalene-7,2′-oxirane]], the EC50 is 50.1 µM.

As to `CCCC(O)CCC1C(C)CCCC1(C)C` (centres unmarked) [Compound 1, Norlimbanol], the EC50 is 3.98 µM.

`CCC(O)COC1CCCCC1C(C)(C)C` (centres unmarked) [Compound 2, Ambercore]: the EC50 was 12.6 µM.

Turning to `CCC12CCC3C(C)(C)CCCC3(C)C1COC2` (centres unmarked) [Compound 3, Grisalva], the EC50 is 25.1 µM.

In the case of `CCCC(O)COC1C2(C)CCC(C2)C1(C)C` (centres unmarked) [Compound 5, 1-((1,3,3-trimethylbicyclo[2.2.1]heptan-2-yl)oxy)pentan-2-ol], the EC50 is 50.1 µM.

In the case of `CCCC(=O)COC1C2(C)CCC(C2)C1(C)C` (centres unmarked) [Compound 6, 1-((1,3,3-trimethylbicyclo[2.2.1]heptan-2-yl)oxy)pentan-2-one], the EC50 was 50.1 µM.

On to `CCC(O)COC1C2(C)CCC(C2)C1(C)C` (centres unmarked) [Compound 7, 1-((1,3,3-trimethylbicyclo[2.2.1]heptan-2-yl)oxy)butan-2-ol], for which the EC50 is 50.1 µM.

Regarding `CC(C)[C@H]1OCC[C@]2(CC3CC[C@]2(C)C3(C)C)O1` [Compound 9, Belambre], the EC50 is 1.58 µM.

In the case of `CC1OC[C@H](C)C2(CC3CCC2(C)C3(C)C)O1` (stereo partly drawn) [Compound 10, 1′,2,5(S),7′,7′-Pentamethyl-spiro[1,3-dioxane-4,2′-bicyclo[2.2.1]heptane]], the EC50 is 2.51 µM.

`CC1OCC(C)C2(CC3CCC2(C)C3(C)C)O1` (centres unmarked) [Compound 11, 1′,2,5,7′,7′-Pentamethylspiro[1,3-dioxane-4,2′-bicyclo[2.2.1]heptane]]: the EC50 was 2 µM.

Regarding `CC1CCC2C(C2(C)C)C12COC(C)(C)OC2` (centres unmarked) [Compound 12, Spirambrene], the EC50 was 12.6 µM.

As to `CC(C)[C@]12C[C@@H]3OC(C)(C)O[C@]3(C)[C@H](C1)C(C)(C)C2` [Compound 13, 2,4,4,10,10-Pentamethyl-8-propan-2-yl-3,5-dioxatricyclo[6.2.1.02,6]undecane], the EC50 was 0.398 µM.

Regarding `CC1(C)CCC[C@]2(C)[C@H]3CCO[C@]3(C)CC[C@@H]12` [Compound 18, Ambroxan or (−)-Ambroxide], the EC50 is 31.6 µM.

As to `CC(=O)OCC1CCC(C)(C)C23CC4C[C@H]2C13C4(C)C` (some centres unmarked) [Compound 19, Amboryl acetate], the EC50 was 63.1 µM.

In the case of `CC(C=O)C1=C2C(C)(C)[C@H]3CC[C@@]2(C3)C(C)(C)CC1` (some centres unmarked) [Compound 21, 5-(1-Oxopropan-2-yl)isolongifol-5-ene], the EC50 is 0.501 µM.

For `CC(O)C(C)C1=C2C(C)(C)[C@H]3CC[C@@]2(C3)C(C)(C)CC1` (some centres unmarked) [Compound 22, 5-(3-Hydroxybutan-2-yl)isolongifol-5-ene], the EC50 was 1.58 µM.

Regarding `CCC(CO)C1=C2C(C)(C)[C@H]3CC[C@@]2(C3)C(C)(C)CC1` (some centres unmarked) [Compound 27, 5-(1-Hydroxybutan-2-yl)isolongifol-5-ene], the EC50 was 3.16 µM.

`CCC(COC)C1=C2C(C)(C)[C@H]3CC[C@@]2(C3)C(C)(C)CC1` (some centres unmarked) [Compound 30, 5-(1-Methoxybutan-2-yl)isolongifol-5-ene]: the EC50 is 2.51 µM.

With `CCC(COC)C1=CCC(C)(C)[C@@]23CC[C@@H](C2)C(C)(C)C13` (some centres unmarked) [Compound 31, 5-(1-methoxybutan-2-yl)isolongifol-4-ene], the EC50 is 3.98 µM.

Regarding `CC1(C)C2C(=O)CCC(C)(C)[C@]23CC[C@H]1C3` (stereo partly drawn) [Compound 32, (1S,8S)-2,2,7,7-Tetramethyltricyclo[6.2.1.01,6]undecan-5-one], the EC50 was 20 µM.

On to `CC(=O)C1(C)CC2=C(CCCC2(C)C)CC1C` (centres unmarked) [Compound 34, Sylvamber], for which the EC50 was 25.1 µM.

In the case of `CC1O[C@@]12CC[C@H]1C(C)(C)CCC[C@]1(C)[C@H]2C` (some centres unmarked) [Compound 35, 3′,4,4,8,8a-Pentamethylspiro[2,3,4a,5,6,8-hexahydro-1H-naphthalene-7,2′-oxirane]], the EC50 was 31.6 µM.

Consider `CC1O[C@@]12CC[C@H]1C(C)(C)CCC[C@]1(C)C2` (some centres unmarked) [Compound 36, 3′,4,4,8a-Tetramethylspiro[2,3,4a,5,6,8-hexahydro-1H-naphthalene-7,2′-oxirane]], for which the EC50 is 20 µM.

Regarding `C[C@H]1[C@]2(CCC3C(C)(C)CCC[C@@]31C)CO2` (some centres unmarked) [Compound 37, 4,4,8,8a-Tetramethylspiro[2,3,4a,5,6,8-hexahydro-1H-naphthalene-7,2′-oxirane]], the EC50 is 501 µM.

In the case of `CC(CO)C1CCC(C)(C)[C@@]23CC[C@@H](C2)C(C)(C)C13` (some centres unmarked) [Compound 39, 5-(1-Hydroxypropan-2-yl)isolongifolane], the EC50 was 1.58 µM.

In the case of `CCOCOC1CCCCCCCCCCC1` [Compound 40, Boisambrene], the EC50 was 50.1 µM.

In the case of `CC(=O)C1CC/C(C)=C\CC/C(C)=C\C/C=C\1C` (centres unmarked) [Compound 42, Cyclisone/Trimofix], the EC50 was 20 µM.

Take `CC1(C)C/C=C\CC/C=C\CCC2OC21C` (centres unmarked) [Compound 43, Cedroxyde]: the EC50 is 2 µM.

Turning to `C/C1=C/CCC2(C)OC2CC/C(C)=C\CC1` (centres unmarked) [Compound 44, (E)-woody epoxide], the EC50 was 7.94 µM.

Take `C[C@]12CCC(=O)C[C@@H]1CC[C@@H]1[C@@H]2CC[C@]2(C)C=CC[C@@H]12` [Compound 45, 5α-Androst-16-en-3-one]: the EC50 is 20 µM.

On to `C[C@@]12C=CCC1C1CC=C3C[C@@H](O)CC[C@]3(C)C1CC2` (some centres unmarked) [Compound 46, Androstadienol], for which the EC50 is 12.6 µM.
